Experiments:
[1] = target: T1, ETA receptors (rat aortic rings) (Rattus norvegicus, UniProt P26684); assay: Inhibition of endothelin-1-induced contraction of isolated rat aortic rings; format: cell-based; conditions: read-out: pA2 value Aorta (converted)
T1 construct: The thoracic aorta or trachea were excised, dissected and cut in 3-5 mm rings; from tissue; host or cells: thoracic aorta rings of adult Wistar rats, endothelium removed
T1 sequence (P26684 21-426): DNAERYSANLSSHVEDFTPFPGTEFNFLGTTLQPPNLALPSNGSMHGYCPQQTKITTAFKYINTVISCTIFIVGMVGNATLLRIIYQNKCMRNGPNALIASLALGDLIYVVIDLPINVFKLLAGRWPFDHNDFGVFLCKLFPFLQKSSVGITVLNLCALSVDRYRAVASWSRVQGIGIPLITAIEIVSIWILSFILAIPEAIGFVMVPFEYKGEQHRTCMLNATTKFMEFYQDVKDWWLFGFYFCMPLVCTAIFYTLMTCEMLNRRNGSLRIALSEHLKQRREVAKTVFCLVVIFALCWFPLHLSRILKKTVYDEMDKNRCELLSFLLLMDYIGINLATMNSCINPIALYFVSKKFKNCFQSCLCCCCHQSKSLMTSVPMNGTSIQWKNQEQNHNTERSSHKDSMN
Description: (§1) 2) Inhibition of Endothelin-Induced Contractions on Isolated Rat Aortic Rings (ETA Receptors) and Rat Tracheal Rings (ETB Receptors):
(§2) The functional inhibitory potency of the endothelin antagonists was assessed by their inhibition of the contraction induced by endothelin-1 on rat aortic rings (ETA receptors) and of the contraction induced by sarafotoxin S6c on rat tracheal rings (ETB receptors). Adult Wistar rats were anesthetized and exsanguinated. The thoracic aorta or trachea were excised, dissected and cut in 3-5 mm rings. The endothelium/epithelium was removed by gentle rubbing of the intimal surface. Each ring was suspended in a 10 mL isolated organ bath filled with Krebs-Henseleit solution (in mM; NaCl 115, KCl 4.7, MgSO4 1.2, KH2PO4 1.5, NaHCO3 25, CaCl2 2.5, glucose 10) kept at 37° C. and gassed with 95% O2 and 5% CO2. The rings were connected to force transducers and isometric tension was recorded (EMKA Technologies SA, Paris, France). The rings were stretched to a resting tension of 3 g (aorta) or 2 g (trachea). […] The functional inhibitory potency of the test compound was assessed by calculating the concentration ratio, i.e. the shift to the right of the EC50 induced by different concentrations of test compound. […]

[2] = target: T2, human recombinant ETA receptors (Homo sapiens, UniProt P25101); assay: Inhibition of [125I]ET-1 binding to membranes from CHO cells carrying human ETA receptors
T2 construct: expressed in transfected cells; host or cells: CHO cells (microsomal membranes)
T2 sequence (P25101 21-427): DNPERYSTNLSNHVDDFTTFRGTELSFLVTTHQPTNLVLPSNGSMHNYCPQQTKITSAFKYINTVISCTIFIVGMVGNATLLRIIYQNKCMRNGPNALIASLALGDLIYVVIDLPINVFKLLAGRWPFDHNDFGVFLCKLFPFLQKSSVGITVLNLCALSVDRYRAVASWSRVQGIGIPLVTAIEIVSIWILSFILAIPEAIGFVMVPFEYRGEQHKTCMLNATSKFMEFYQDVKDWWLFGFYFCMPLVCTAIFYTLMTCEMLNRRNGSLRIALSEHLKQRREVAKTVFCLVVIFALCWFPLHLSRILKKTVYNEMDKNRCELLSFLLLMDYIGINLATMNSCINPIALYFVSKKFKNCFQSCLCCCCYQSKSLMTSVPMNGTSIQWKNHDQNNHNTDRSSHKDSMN

[3] = target: T3, ETB receptors (rat tracheal rings) (Rattus norvegicus, UniProt P21451); assay: Inhibition of sarafotoxin S6c-induced contraction of isolated rat tracheal rings; format: cell-based; conditions: contraction induced by sarafotoxin S6c, 10 min incubation, read-out: pA2 value Trachea (converted)
T3 construct: The thoracic aorta or trachea were excised, dissected and cut in 3-5 mm rings; from tissue; host or cells: tracheal rings of adult Wistar rats, epithelium removed
T3 sequence (P21451 27-442): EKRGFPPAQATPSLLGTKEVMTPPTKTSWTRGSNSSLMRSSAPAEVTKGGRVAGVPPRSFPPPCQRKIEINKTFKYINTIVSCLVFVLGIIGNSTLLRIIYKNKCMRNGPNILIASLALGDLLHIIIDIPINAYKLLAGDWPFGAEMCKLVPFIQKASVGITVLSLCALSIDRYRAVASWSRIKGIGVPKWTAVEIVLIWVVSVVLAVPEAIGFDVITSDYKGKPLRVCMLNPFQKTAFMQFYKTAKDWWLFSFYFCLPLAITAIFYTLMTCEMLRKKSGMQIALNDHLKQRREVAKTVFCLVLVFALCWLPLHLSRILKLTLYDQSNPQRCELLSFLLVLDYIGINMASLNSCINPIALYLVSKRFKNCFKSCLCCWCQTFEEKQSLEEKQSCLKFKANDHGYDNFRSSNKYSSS
Description: as §1, §2

[4] = target: T4, human recombinant ETB receptors (Homo sapiens, UniProt P24530); assay: Inhibition of [125I]ET-1 binding to membranes from CHO cells carrying human ETB receptors; note: 2.5% DMSO
T4 construct: expressed in transfected cells; host or cells: CHO cells (microsomal membranes)
T4 sequence (P24530 27-442): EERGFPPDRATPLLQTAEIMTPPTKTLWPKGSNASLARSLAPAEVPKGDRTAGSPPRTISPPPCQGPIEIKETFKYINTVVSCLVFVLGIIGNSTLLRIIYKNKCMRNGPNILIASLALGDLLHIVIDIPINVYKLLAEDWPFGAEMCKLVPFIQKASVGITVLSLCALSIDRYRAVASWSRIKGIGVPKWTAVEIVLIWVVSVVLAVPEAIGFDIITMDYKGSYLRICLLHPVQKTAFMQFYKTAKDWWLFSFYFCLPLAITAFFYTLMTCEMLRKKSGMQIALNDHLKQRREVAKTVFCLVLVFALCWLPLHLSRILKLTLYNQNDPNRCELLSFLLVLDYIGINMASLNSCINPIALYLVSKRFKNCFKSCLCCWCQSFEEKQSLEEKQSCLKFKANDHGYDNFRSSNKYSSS
Description: 1) Inhibition of Endothelin Binding to Membranes from CHO Cells Carrying Human ET Receptors:
For competition binding studies, membranes of CHO cells expressing human recombinant ETA or ETB receptors were used. Microsomal membranes from recombinant CHO cells were prepared and the binding assay made as previously described (Breu V., et al, FEBS Lett 1993; 334:210).
The assay is performed in 200 uL 50 mM Tris/HCl buffer, pH 7.4, including 25 mM MnCl2, 1 mM EDTA and 0.5% (w/v) BSA in polypropylene microtiter plates. […]. […] After 2 h, the membranes were filtered on filterplates containing GF/C filters (Unifilterplates from Canberra Packard S. A. Zürich, Switzerland). To each well, 50 uL of scintillation cocktail is added (MicroScint 20, Canberra Packard S. A. Zürich, Switzerland) and the filter plates counted in a microplate counter (TopCount, Canberra Packard S. A. Zürich, Switzerland).
All the test compounds were dissolved, diluted and added in DMSO. […] […].

| SMILES | Kb [1] | IC50 [2] | Kb [3] | IC50 [4] |
| --- | --- | --- | --- | --- |
| O=S(=O)(NCCCO)Nc1ncnc(OCCOc2ncc(Br)cn2)c1-c1ccc(Br)cc1 [Example 1, 1-hydroxypropanesulfamic acid[6-(2-(5-bromopyrimid-2-yloxy)-ethoxy)-5-(4-bromophenyl)-pyrimidin-4-yl]-amide] | 100 nM | 0.603 nM | 3160 nM | 322 nM |
| O=C(O)CCNS(=O)(=O)Nc1ncnc(OCCOc2ncc(Br)cn2)c1-c1ccc(Br)cc1 [Example 2] | 6.31 nM | 0.656 nM | 794 nM | 330 nM |
